This is an account of results in ChEMBL document CHEMBL1146269, “Intermediate analogue inhibitors of mandelate racemase: N-Hydroxyformanilide and cupferron” (Bioorg Med Chem Lett, 2007).

One series concerns the target T1, Mandelate racemase (Pseudomonas putida, UniProt P11444).
T1 sequence (P11444 whole entry): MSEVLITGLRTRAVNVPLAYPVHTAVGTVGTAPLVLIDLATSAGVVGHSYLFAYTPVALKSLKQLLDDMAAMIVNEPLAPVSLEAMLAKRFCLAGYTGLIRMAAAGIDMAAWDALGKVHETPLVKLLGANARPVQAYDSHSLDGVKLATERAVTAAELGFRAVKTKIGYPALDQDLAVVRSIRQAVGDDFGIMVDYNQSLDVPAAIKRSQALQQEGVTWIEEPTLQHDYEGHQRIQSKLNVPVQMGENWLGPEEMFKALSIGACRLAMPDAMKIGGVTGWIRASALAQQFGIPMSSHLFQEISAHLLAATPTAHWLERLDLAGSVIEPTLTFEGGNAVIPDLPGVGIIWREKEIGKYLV
In words: Inhibition of mandelate racemase in Pseudomonas putida.

A short description of series [1]: Dissociation constant, pKa of the compound. The series is classed as physicochemical.

For the compound `O=NN(O)c1ccccc1` [CUPFERRON], the inhibitory constant (Ki) – broadly, the equilibrium dissociation constant of an inhibitor or competing ligand from its target – on Mandelate racemase was determined as 2.67 µM.
In the case of `O=C1Cc2ccccc2N1O`, the Ki on Mandelate racemase amounted to 510 µM.
On the same count and under the same terms, in the case of `O=C(NO)c1ccccc1` [BENZOHYDROXAMATE] it was 12 µM.
`O=CN(O)c1ccccc1` showed an inhibitory constant (Ki) at Mandelate racemase of 2.79 µM. In addition, the pKa (as a rule, the pH at which an ionisable group is half protonated) in series [1] is 7.92.
